Key:
Type in all cases: in vivo, mouse
gut microbiota = test: 16S rRNA analysis of fecal samples after maternal glyphosate exposure; details: juvenile offspring (P28)
Description: 16S rRNA analysis and measurement of short-chain fluty acids of fecal samples. On P28, we collected fresh fecal samples from each mouse at around 10:00 in order to avoid circadian effects on the microbiome. The fecal samples were put into a sterilized screw cap microtube immediately after defecation, and these samples were stored at −80° C. until use. DNA extraction from mouse feces and 16S rRNA analysis of fecal samples were performed by MyMetagenome Co, Ltd. (Tokyo, Japan), as reported previously (20,21).

ddY mice = test: Measurement of NMDAR-related amino acids in plasma and brain after maternal glyphosate exposure; details: juvenile offspring (P28)
Description: Measurement of amino acids. On P28, mice were deeply anesthetized with isoflurane and plasma was collected. Subsequently, prefrontal cortex (PFC), hippocampus and striatum were quickly dissected on ice from whole brain. The dissected tissues were weighed and stored at −80° C. until assayed. Levels of amino acids (glutamate, glutamine, glycine, L-serine, D-serine, GABA) were measured using high performance liquid chromatography system (Shimadzu Corporation, Kyoto, Japan), as reported previously (12,18,19).

Ephx2 mRNA = test: Quantitative RT-PCR of Ephx2 mRNA after maternal glyphosate exposure; details: juvenile offspring (P28) after maternal glyphosate exposure vs water
From the text: Gene expression analysis by quantitative real-time PCR. At juvenile (P28) stage, mice were sacrificed, and their brains were removed for measurement of gene expression of Ephx2 mRNA. Brain regions such as PFC, hippocampus, and striatum were dissected from brain on ice. A quantitative RT-PCR system (Step One Plus, Thermo Fisher Scientific, Yokohama, Japan) was used to measure mRNAs. The specific mRNA transcripts were quantified by TaqManGene Expression assays (Thermo Fisher Scientific, Yokohama, Japan). Expression levels of Ephx2 (Mm01313813_m1) was measured in brain tissue. Total RNA was extracted by use of an RNeasy Mini Kit (Qiagen, Hilden, Germany). The purity of total RNA was assessed by Biophotometer plus (Eppendorf, Hamburg, Germany). The RNA samples were used in the first strand cDNA synthesis with High Capacity cDNA Reverse Transcription Kit (#4368813 Thermo Fisher Scientific, Yokohama, Japan). All samples were tested in triplicate and average values were used for quantification. The average values were normalized to Vic-labeled Actb mRNA (Cat #4352341E: pre-developed TaqMan Assay Reagents, Thermo Fisher Scientific, Yokohama, Japan).

[1] = Measurement of glyphosate in the blood (LC/MS/MS); details: mothers treated with 0.095% glyphosate E5-P21 and their offspring
Description: Measurement of glyphosate in the blood. Water or 0.095% glyphosate was given to pregnant mice from E5 to P21, as described above. At weaning (P21), mothers and male offspring mice were deeply anesthetized with isoflurane and plasma was collected. The plasma samples were stored at −80° C. before assay. Measurement of glyphosate in the plasma was performed using LC/MS/MS at UC Davis.
The 40 μL of internal standard (2 μg/mL of glyphosate-2-^13C solution in methanol) and 40 μL of methanol were added to 20 μL of plasma. The spiked sample was vortexed for 5 minutes and then centrifuged at […] for another 5 minutes. The supernatants were transferred for the followed LC/MS/MS measurement, which uses Waters Acquity UPLC system (Waters, Milford, MA) interfaced with a QTRAP 6500+ mass spectrometer (Sciex, Redwood City, CA) using electrospray source. The separation was achieved on a Waters Acquity BEH C18 50×2.1 mm 1.7 μm column with mobile phases of water with 0.1% of formic acid as mobile phase A and acetonitrile with 0.1% of formic acid as mobile phase B. The gradient was shown in Table 10. All the parameters on the mass spectrometer were optimized with pure standards of glyphosate and glyphosate-2-^13C (purchased from Millipore Sigma, Burlington MA) under positive MRM mode.

## O=C(O)CNCP(=O)(O)O [glyphosate]
Gut microbiota; maternal glyphosate exposure
  composition of gut microbiota: abnormal composition
Gut microbiota; vs water-treated group
  relative abundance of Clostridium sp. Clone-1, Enterorhabdus muris, Clostridium sp. Clone-46, and Butyricimonas virosa: significantly higher
  relative abundance of Eubacterium plexicaudatum, Lachnospiraceae bacterium 538, and Clostridium tertium: significantly lower
ddY mice; PFC
  D-Serine level: 0.313 ± 0.010 nmol/mg tissue
  GABA level: 2.060 ± 0.058 nmol/mg tissue
  Glutamate level: 10.392 ± 0.377 nmol/mg tissue
  Glutamine level: 5.053 ± 0.243 nmol/mg tissue
  Glycine level: 0.705 ± 0.023 nmol/mg tissue
  L-Serine level: 0.622 ± 0.016 nmol/mg tissue
ddY mice; hippocampus
  D-Serine level: 0.259 ± 0.017 nmol/mg tissue
  GABA level: 2.469 ± 0.097 nmol/mg tissue
  Glutamate level: 9.350 ± 0.282 nmol/mg tissue
  Glutamine level: 4.765 ± 0.137 nmol/mg tissue
  Glycine level: 0.725 ± 0.030 nmol/mg tissue
  L-Serine level: 0.662 ± 0.037 nmol/mg tissue
ddY mice; plasma
  D-Serine level: 7.522 ± 0.578 nmol/mL
  Glutamate level: 38.003 ± 1.974 nmol/mL
  Glutamine level: 496.268 ± 15.748 nmol/mL
  Glycine level: 354.185 ± 9.806 nmol/mL
  L-Serine level: 144.824 ± 4.622 nmol/mL
ddY mice; striatum
  D-Serine level: 0.281 ± 0.010 nmol/mg tissue
  GABA level: 3.076 ± 0.151 nmol/mg tissue
  Glutamate level: 7.745 ± 0.141 nmol/mg tissue
  Glutamine level: 5.735 ± 0.319 nmol/mg tissue
  Glycine level: 0.755 ± 0.039 nmol/mg tissue
  L-Serine level: 0.715 ± 0.032 nmol/mg tissue
Ephx2 mRNA
  gene expression of sEH (or Ephx2) mRNA in the PFC, hippocampus, and striatum: significantly higher
[1]
  blood levels of glyphosate on P21 (weaning): could detect
